Measurements from patent US12428380B2 (PSYLO PTY LTD, priority 2023, dated 2025).

Assays:
Type in all cases: cell-based
[1] = target: T1, 5-HT2A (Homo sapiens, UniProt P28223); assay: FLIPR Ca2+ flux functional assay, 5-HT2A (HEK293); conditions: HEK293 cells expressing 5-HT2A; for Emax: HEK293, agonist activity; for EC50: agonist activity
T1 construct: host or cells: HEK293

[2] = target: T2, 5-HT2C (Homo sapiens, UniProt P28335); assay: FLIPR Ca2+ flux functional assay, 5-HT2C (HEK293); conditions: HEK293 cells expressing 5-HT2C; for Emax: HEK293, agonist activity; for EC50: agonist activity
T2 construct: host or cells: HEK293
T2 sequence (P28335 33-458): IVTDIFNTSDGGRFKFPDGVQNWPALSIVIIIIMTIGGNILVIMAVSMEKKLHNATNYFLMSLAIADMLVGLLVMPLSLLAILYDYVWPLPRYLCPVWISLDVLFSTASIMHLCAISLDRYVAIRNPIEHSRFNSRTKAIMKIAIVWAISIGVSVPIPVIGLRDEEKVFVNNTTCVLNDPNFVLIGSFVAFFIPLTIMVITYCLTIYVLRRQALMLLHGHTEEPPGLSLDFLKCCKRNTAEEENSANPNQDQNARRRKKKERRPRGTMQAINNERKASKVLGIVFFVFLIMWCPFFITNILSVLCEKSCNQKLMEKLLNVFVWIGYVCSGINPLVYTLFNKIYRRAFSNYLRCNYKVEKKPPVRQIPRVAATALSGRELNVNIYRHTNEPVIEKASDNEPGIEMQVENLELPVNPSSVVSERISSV

[3] = target: T3, 5-HT2B (Homo sapiens, UniProt P41595); assay: Activation in a similar Ca2+ flux assay at a single concentration, 5-HT2B; conditions: head prints 10 µM
T3 construct: host or cells: CHO-K1
Protocol: Activity at 5-HT2A, 5-HT2B and 5-HT2C receptors was determined using a FLIPR Ca2+ flux assay at WuXi AppTec Co. Ltd. (Hong Kong) Discovery Biology Unit according to their standard protocols. Briefly, stably transfected cells expressing the receptor of interest (HEK293 for 5-HT2A and 5-HT2C; CHO-K1 for 5-HT2B) were grown and plated in a 384 well plate and incubated at 37° C. and 5% CO2 overnight. A 250 mM stock solution of probenecid in FLIPR calcium assay buffer (10 mL) was freshly prepared and combined with a fluorescent dye (Fluo-4 Direct) to give a final assay concentration of 2.5 mM. Reference compounds were 4-fold serially diluted and the screening compounds were 3-fold serially diluted in 100% DMSO for 10 points using Agilent Bravo, and 750 nL was added to a 384 well compound plate using Echo along with 30 μL assay buffer. The fluorescent dye was then added to the assay plate along with assay buffer to a final volume of 40 μL. The cell plate was incubated for 50 min at 37° C. and 5% CO2 and placed into the FLIPR Tetra along with the compound plate. 10 μL of references and compounds were then transferred from the compound plate into the cell plate and the fluorescent signal was read.
Activation data are provided in a similar assay tested at a single 10 μM concentration.

T1 sequence (P28223 whole entry): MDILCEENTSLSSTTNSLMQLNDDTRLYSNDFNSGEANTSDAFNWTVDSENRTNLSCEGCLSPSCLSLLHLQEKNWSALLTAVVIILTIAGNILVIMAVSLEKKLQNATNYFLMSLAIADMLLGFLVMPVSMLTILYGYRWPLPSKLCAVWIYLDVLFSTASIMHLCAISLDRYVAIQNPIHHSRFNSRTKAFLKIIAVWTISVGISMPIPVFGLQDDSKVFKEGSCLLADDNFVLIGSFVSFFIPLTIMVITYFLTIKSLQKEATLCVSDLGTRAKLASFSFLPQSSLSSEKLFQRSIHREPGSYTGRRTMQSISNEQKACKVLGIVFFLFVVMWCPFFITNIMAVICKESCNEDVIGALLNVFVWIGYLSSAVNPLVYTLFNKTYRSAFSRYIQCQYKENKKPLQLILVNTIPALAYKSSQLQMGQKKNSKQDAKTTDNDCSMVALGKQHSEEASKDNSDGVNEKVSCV
T3 sequence (P41595 whole entry, species assumed): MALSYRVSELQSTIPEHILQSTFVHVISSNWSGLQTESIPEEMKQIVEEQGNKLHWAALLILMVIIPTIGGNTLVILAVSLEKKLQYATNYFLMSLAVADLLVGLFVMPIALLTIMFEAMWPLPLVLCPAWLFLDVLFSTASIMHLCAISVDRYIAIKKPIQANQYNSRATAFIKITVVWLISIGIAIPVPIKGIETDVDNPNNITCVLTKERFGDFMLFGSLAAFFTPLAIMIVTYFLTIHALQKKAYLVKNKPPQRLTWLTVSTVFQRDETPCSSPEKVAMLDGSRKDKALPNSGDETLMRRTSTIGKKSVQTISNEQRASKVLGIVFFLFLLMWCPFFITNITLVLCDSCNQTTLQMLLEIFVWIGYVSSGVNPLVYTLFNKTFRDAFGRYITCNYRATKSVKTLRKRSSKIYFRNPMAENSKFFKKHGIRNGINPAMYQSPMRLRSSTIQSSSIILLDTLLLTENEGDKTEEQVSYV

Compound: COc1cc(F)cc2[nH]nc(CCN3CCC3)c12 [Example A41, 3-(2-(azetidin-1-yl)ethyl)-6-fluoro-4-methoxy-1H-indazole]
- Emax [1]: 78%
- EC50 [1]: 1080 nM
- Emax [2]: 65%
- EC50 [2]: 1420 nM

Compound: COc1ccc(F)c2[nH]nc(CCN(C)C)c12 [Example A44, 2-(7-fluoro-4-methoxy-1H-indazol-3-yl)-N,N-dimethylethan-1-amine]
- 5-HT2B % Activation @ 10 µM [3]: 0%
- Emax [1]: 52%
- EC50 [1]: 93 nM
- Emax [2]: 44%
- EC50 [2]: 222 nM

Compound: COc1ccc2[nH]nc(CCNCc3cccc(F)c3)c2c1 [Example A65, N-(3-fluorobenzyl)-2-(5-methoxy-1H-indazol-3-yl)ethan-1-amine]
- 5-HT2B % Activation @ 10 µM [3]: 1%
- Emax [1]: 70%
- EC50 [1]: 91.6 nM
- Emax [2]: 81%
- EC50 [2]: 891 nM

Compound: COc1c(F)ccc2[nH]nc(CCN(C)C3CC3)c12 [Example A4, N-(2-(5-fluoro-4-methoxy-1H-indazol-3-yl)ethyl)-N-methylcyclopropanamine]
- 5-HT2B % Activation @ 10 µM [3]: 2%
- Emax [1]: 67%
- EC50 [1]: 62.7 nM
- Emax [2]: 91%
- EC50 [2]: 17.1 nM

Compound: COc1cc(F)cc2[nH]nc(CCN(C)C(C)C)c12 [Example A40, N-(2-(6-fluoro-4-methoxy-1H-indazol-3-yl)ethyl)-N-methylpropan-2-amine]
- 5-HT2B % Activation @ 10 µM [3]: 0%
- Emax [1]: 72%
- EC50 [1]: 322 nM
- Emax [2]: 68%
- EC50 [2]: > 10000 nM

Compound: COc1cc(F)c2[nH]nc(CCN3CCC4CC43)c2c1 (centres unmarked) [Example A55, 3-(2-(2-azabicyclo[3.1.0]hexan-2-yl)ethyl)-7-fluoro-5-methoxy-1H-indazole]
- 5-HT2B % Activation @ 10 µM [3]: 48%
- Emax [1]: 86.2%
- EC50 [1]: 39.8 nM
- Emax [2]: 87%
- EC50 [2]: 207 nM

Compound: CC(C)N(C)CCc1n[nH]c2ccc(F)cc12 [Example A19, N-(2-(5-fluoro-1H-indazol-3-yl)ethyl)-N-methylpropan-2-amine]
- 5-HT2B % Activation @ 10 µM [3]: 1%
- Emax [1]: 25%
- EC50 [1]: > 10000 nM
- Emax [2]: 69%
- EC50 [2]: 1520 nM

Compound: Fc1ccc2[nH]nc(CCN3CCC3)c2c1F [Example A72, 3-(2-(azetidin-1-yl)ethyl)-4,5-difluoro-1H-indazole]
- Emax [1]: 78%
- EC50 [1]: 1350 nM
- Emax [2]: 37%
- EC50 [2]: 973 nM

Compound: COc1ccccc1CNCCc1n[nH]c2cccc(F)c12 [Example A34, 2-(4-fluoro-1H-indazol-3-yl)-N-(2-methoxybenzyl)ethan-1-amine]
- 5-HT2B % Activation @ 10 µM [3]: 0%
- Emax [1]: 86%
- EC50 [1]: 55.2 nM
- Emax [2]: 84%
- EC50 [2]: 167 nM

Compound: COc1cc2c(CCN3CCCC3)n[nH]c2cc1F [Example A59, 6-fluoro-5-methoxy-3-(2-(pyrrolidin-1-yl)ethyl)-1H-indazole]
- 5-HT2B % Activation @ 10 µM [3]: 5%
- Emax [1]: 79%
- EC50 [1]: 202 nM
- Emax [2]: 66%
- EC50 [2]: 3870 nM

Compound: COc1ccccc1CNCCc1n[nH]c2cc(F)cc(F)c12 [Example A33, 2-(4,6-difluoro-1H-indazol-3-yl)-N-(2-methoxybenzyl)ethan-1-amine]
- 5-HT2B % Activation @ 10 µM [3]: 23%
- Emax [1]: 91%
- EC50 [1]: 14.4 nM
- Emax [2]: 90%
- EC50 [2]: 159 nM

Compound: Fc1ccc2[nH]nc(CCN3CCCC3)c2c1F [Example A73, 4,5-difluoro-3-(2-(pyrrolidin-1-yl)ethyl)-1H-indazole]
- 5-HT2B % Activation @ 10 µM [3]: 18%
- Emax [1]: 87%
- EC50 [1]: 768 nM
- Emax [2]: 70%
- EC50 [2]: 1780 nM

Compound: COc1ccc2[nH]nc(CCNCc3ccccc3F)c2c1 [Example A64, N-(2-fluorobenzyl)-2-(5-methoxy-1H-indazol-3-yl)ethan-1-amine]
- 5-HT2B % Activation @ 10 µM [3]: 0%
- Emax [1]: 79%
- EC50 [1]: 68.7 nM
- Emax [2]: 82%
- EC50 [2]: 602 nM

Compound: CCN(C)CCc1n[nH]c2c(F)ccc(OC)c12 [Example A45, N-ethyl-2-(7-fluoro-4-methoxy-1H-indazol-3-yl)-N-methylethan-1-amine]
- 5-HT2B % Activation @ 10 µM [3]: 0%
- Emax [1]: 67%
- EC50 [1]: 163 nM
- Emax [2]: 61%
- EC50 [2]: 614 nM

Compound: CN(C)CCc1n[nH]c2c(F)cccc12 [Example A67, 2-(7-fluoro-1H-indazol-3-yl)-N,N-dimethylethan-1-amine]
- 5-HT2B % Activation @ 10 µM [3]: 0%
- Emax [1]: 63%
- EC50 [1]: 422 nM
- Emax [2]: 37%
- EC50 [2]: 1670 nM

Compound: COc1ccc2[nH]nc(CCN(C)C)c2c1F [Example A9, 2-(4-fluoro-5-methoxy-1H-indazol-3-yl)-N,N-dimethylethan-1-amine]
- 5-HT2B % Activation @ 10 µM [3]: 0%
- Emax [1]: 75%
- EC50 [1]: 809 nM
- Emax [2]: 73%
- EC50 [2]: 1100 nM

Compound: CC(C)N(C)CCc1n[nH]c2c(F)cc(F)cc12 [Example A37, N-(2-(5,7-difluoro-1H-indazol-3-yl)ethyl)-N-methylpropan-2-amine]
- 5-HT2B % Activation @ 10 µM [3]: 0%
- Emax [1]: 57%
- EC50 [1]: 810 nM
- Emax [2]: 11%
- EC50 [2]: > 10000 nM

Compound: COc1cc(F)c2[nH]nc(CCN(C)C)c2c1 [Example A50, 2-(7-fluoro-5-methoxy-1H-indazol-3-yl)-N,N-dimethylethan-1-amine]
- 5-HT2B % Activation @ 10 µM [3]: 2%
- Emax [1]: 79%
- EC50 [1]: 242 nM
- Emax [2]: 11%
- EC50 [2]: > 10000 nM

Compound: CN(C)CCc1n[nH]c2ccc(F)c(F)c12 [Example A69, 2-(4,5-difluoro-1H-indazol-3-yl)-N,N-dimethylethan-1-amine]
- 5-HT2B % Activation @ 10 µM [3]: 5%
- Emax [1]: 79%
- EC50 [1]: 276 nM
- Emax [2]: 62%
- EC50 [2]: 132 nM

Compound: CCN(C)CCc1n[nH]c2c(F)cc(F)cc12 [Example A36, 2-(5,7-difluoro-1H-indazol-3-yl)-N-ethyl-N-methylethan-1-amine]
- 5-HT2B % Activation @ 10 µM [3]: 0%
- Emax [1]: 70%
- EC50 [1]: 361 nM
- Emax [2]: 55%
- EC50 [2]: 732 nM

Compound: COc1cc(F)c2[nH]nc(CCN(C)C(C)C)c2c1 [Example A52, N-(2-(7-fluoro-5-methoxy-1H-indazol-3-yl)ethyl)-N-methylpropan-2-amine]
- 5-HT2B % Activation @ 10 µM [3]: 0%
- Emax [1]: 42%
- EC50 [1]: 650 nM
- Emax [2]: 0%
- EC50 [2]: > 10000 nM

Compound: COc1c(F)ccc2[nH]nc(CCN(C)C)c12 [Example A1, 2-(5-fluoro-4-methoxy-1H-indazol-3-yl)-N,N-dimethylethan-1-amine]
- 5-HT2B % Activation @ 10 µM [3]: 21%
- Emax [1]: 82%
- EC50 [1]: 28.3 nM
- Emax [2]: 84%
- EC50 [2]: 8.21 nM

Compound: COc1cc2c(CCN3CC4CC4C3)n[nH]c2cc1F (centres unmarked) [Example A61, 3-(2-(3-azabicyclo[3.1.0]hexan-3-yl)ethyl)-6-fluoro-5-methoxy-1H-indazole]
- Emax [1]: 67%
- EC50 [1]: 1580 nM
- Emax [2]: 21%
- EC50 [2]: > 10000 nM

Compound: COc1ccc(F)c2[nH]nc(CCN3CCC3)c12 [Example A47, 3-(2-(azetidin-1-yl)ethyl)-7-fluoro-4-methoxy-1H-indazole]
- 5-HT2B % Activation @ 10 µM [3]: 17%
- Emax [1]: 88%
- EC50 [1]: 105 nM
- Emax [2]: 72%
- EC50 [2]: 64 nM

Compound: COc1cc(F)c2[nH]nc(CCN3CCCC3)c2c1 [Example A54, 7-fluoro-5-methoxy-3-(2-(pyrrolidin-1-yl)ethyl)-1H-indazole]
- Emax [1]: 75%
- EC50 [1]: 1380 nM
- Emax [2]: 38%
- EC50 [2]: 3260 nM

Compound: COc1ccc(F)c2[nH]nc(CCN3CCCC3)c12 [Example A48, 7-fluoro-4-methoxy-3-(2-(pyrrolidin-1-yl)ethyl)-1H-indazole]
- Emax [1]: 70%
- EC50 [1]: 533 nM
- Emax [2]: 67%
- EC50 [2]: 556 nM

Compound: COc1cc2c(CCN3CCC4CC43)nn(C)c2cc1F (centres unmarked) [Example A75, 3-(2-(2-azabicyclo[3.1.0]hexan-2-yl)ethyl)-6-fluoro-5-methoxy-1-methyl-1H-indazole]
- Emax [1]: 77%
- EC50 [1]: 63.4 nM

Compound: COc1cc(F)cc2[nH]nc(CCN3CCCC3)c12 [Example A42, 6-fluoro-4-methoxy-3-(2-(pyrrolidin-1-yl)ethyl)-1H-indazole]
- Emax [1]: 81%
- EC50 [1]: 697 nM
- Emax [2]: 89%
- EC50 [2]: 944 nM
